Results reported in US7745495B2, “Pyridine ketones with herbicidal effect” (Syngenta Crop Protection, Inc., priority 2004, dated 2010).

Legend:
Type in all cases: in vivo
Brachiaria = assay: Pre-emergent herbicidal activity; conditions: Table B3, rating 10=total damage, 0=no action
Description: (§1) Monocotyledonous and dicotyledonous test plants are sown in standard soil in plastic pots. […] The test plants are then grown in a greenhouse under optimum conditions. After a test duration of 3 weeks, the test is evaluated in accordance with a scale of ten ratings (10=total damage, 0=no action). Ratings of from 10 to 7 (especially from 10 to 8) indicate good to very good herbicidal action.
(§2) In the following Table B3, the pre-emergent herbicidal activity of compound H-14 according to the invention is compared with 4 compounds according to the prior art. All compounds are structurally identical except for the nature of the alkylene linker attached to the pyridine ring.

Setaria [1] = assay: Pre-emergent herbicidal activity; conditions: Table B3, rating 10=total damage, 0=no action
Description: as §1, §2

Corn = assay: Pre-emergent herbicidal activity on crop plant; conditions: for Pre-emergent Herbicidal Activity: Corn: Table B3, crop plant, rating 10=total damage, 0=no action
Description: as §1, §2

Soya = assay: Pre-emergent herbicidal activity on crop plant; conditions: for Pre-emergent Herbicidal Activity: Soya: Table B3, crop plant, rating 10=total damage, 0=no action
Description: as §1, §2

Amaranthus = assay: Pre-emergence herbicidal action; conditions: rating 10=total damage, 0=no action; for Pre-emergent Herbicidal Activity: Amaranthus: Table B3; for Pre-emergence herbicidal action: Amaranthus: 250 g/ha, after 3 weeks
Description: as §1

Abutilon [2] = assay: Pre-emergence herbicidal action; conditions: rating 10=total damage, 0=no action; for Pre-emergent Herbicidal Activity: Abutilon: Table B3; for Pre-emergence herbicidal action: Abutilon: 250 g/ha, after 3 weeks
Description: as §1

Echinochloa = assay: Pre-emergence herbicidal action; conditions: rating 10=total damage, 0=no action; for Pre-emergent Herbicidal Activity: Echinochloa: Table B3; for Pre-emergence herbicidal action: Echinochloa: 250 g/ha, after 3 weeks
Description: as §1

Panicum [3] = assay: Pre-emergence herbicidal action; conditions: 250 g/ha; after 3 weeks; rating 10=total damage, 0=no action
Description: as §1

Digitaria [4] = assay: Pre-emergence herbicidal action; conditions: 250 g/ha; after 3 weeks; rating 10=total damage, 0=no action
Description: as §1

Chenopodium [5] = assay: Pre-emergence herbicidal action; conditions: 250 g/ha; after 3 weeks; rating 10=total damage, 0=no action
Description: (§3) Monocotyledonous and dicotyledonous test plants are sown in standard soil in plastic pots. Immediately after sowing, the test compounds, in the form of an aqueous suspension (prepared from a 25% wettable powder (Example F3, b) according to WO 97/34485) or in the form of an emulsion (prepared from a 25% emulsifiable concentrate (Example F1, c)), are applied by spraying a concentration corresponding to 125 g or 250 g of active ingredient/ha (500 liter of water/ha). The test plants are then grown in a greenhouse under optimum conditions. After a test duration of 3 weeks, the test is evaluated in accordance with a scale of ten ratings (10=total damage, 0=no action). Ratings of from 10 to 7 (especially from 10 to 8) indicate good to very good herbicidal action.

Stellaria [6] = assay: Pre-emergence herbicidal action; conditions: 250 g/ha; after 3 weeks; rating 10=total damage, 0=no action
Description: as §3

Sinapis = assay: Post-emergence herbicidal action; conditions: 250 g/ha; 4- to 6-leaf stage; after about 18 days; rating 10=total damage, 0=no action
Description: (§4) In a greenhouse, monocotyledonous and dicotyledonous test plants are grown in standard soil in plastic pots and at the 4- to 6-leaf stage are sprayed with an aqueous suspension of the test compounds of formula I prepared from a 25% wettable powder (Example F3, b) according to WO 97/34485) or with an emulsion of the test compounds of formula I prepared from a 25% emulsifiable concentrate (Example F1, c) according to WO 97/34485), in a concentration corresponding to 125 g or 250 g of active ingredient/ha (500 liter of water/ha). The test plants are then grown on in a greenhouse under optimum conditions. After a test duration of about 18 days, the test is evaluated in accordance with a scale of ten ratings (10=total damage, 0=no action). Ratings of from 10 to 7 (especially from 10 to 8) indicate good to very good herbicidal action.

Setaria [7] = assay: Post-emergence herbicidal action; conditions: 250 g/ha; 4- to 6-leaf stage; after about 18 days; rating 10=total damage, 0=no action
Description: as §4

Chenopodium [8] = assay: Post-emergence herbicidal action; conditions: 250 g/ha; 4- to 6-leaf stage; after about 18 days; rating 10=total damage, 0=no action
Description: as §4

Stellaria [9] = assay: Post-emergence herbicidal action; conditions: 250 g/ha; 4- to 6-leaf stage; after about 18 days; rating 10=total damage, 0=no action
Description: as §4

Ipomea = assay: Post-emergence herbicidal action; conditions: 250 g/ha; 4- to 6-leaf stage; after about 18 days; rating 10=total damage, 0=no action
Description: as §4

Abutilon [10] = assay: Post-emergence herbicidal action; conditions: 250 g/ha; 4- to 6-leaf stage; after about 18 days; rating 10=total damage, 0=no action
Description: as §4

Panicum [11] = assay: Post-emergence herbicidal action; conditions: 250 g/ha; 4- to 6-leaf stage; after about 18 days; rating 10=total damage, 0=no action
Description: as §4

Digitaria [12] = assay: Post-emergence herbicidal action; conditions: 250 g/ha; 4- to 6-leaf stage; after about 18 days; rating 10=total damage, 0=no action
Description: as §4

[13] = pre-emergent, 30 and 15 g/ha, result in words on Table B3

SMILES	Pre-emergent Herbicidal Activity: Brachiaria (Brachiaria; 15 g/ha)	Pre-emergent Herbicidal Activity: Brachiaria (Brachiaria; 30 g/ha)	Pre-emergent Herbicidal Activity: Setaria (Setaria [1]; 30 g/ha)	Pre-emergent Herbicidal Activity: Corn (Corn; 15 g/ha)	Pre-emergent Herbicidal Activity: Corn (Corn; 30 g/ha)	Pre-emergence herbicidal action: Amaranthus (Amaranthus)	Pre-emergence herbicidal action: Abutilon (Abutilon [2])	Pre-emergence herbicidal action: Panicum (Panicum [3])	Pre-emergence herbicidal action: Echinochloa (Echinochloa)	Pre-emergence herbicidal action: Digitaria (Digitaria [4])	Pre-emergence herbicidal action: Chenopodium (Chenopodium [5])	Pre-emergence herbicidal action: Stellaria (Stellaria [6])	Post-emergence herbicidal action: Sinapis (Sinapis)	Post-emergence herbicidal action: Setaria (Setaria [7])	Post-emergence herbicidal action: Chenopodium (Chenopodium [8])	Post-emergence herbicidal action: Stellaria (Stellaria [9])	Post-emergence herbicidal action: Ipomea (Ipomea)	Post-emergence herbicidal action: Abutilon (Abutilon [10])	Post-emergence herbicidal action: Panicum (Panicum [11])	Post-emergence herbicidal action: Digitaria (Digitaria [12])	other results
COCCc1nc(C(F)(F)F)ccc1C(=O)C1C(=O)C2CCC(C2)C1=O (stereo not drawn) [A]	6	7	7	0	0																Pre-emergent Herbicidal Activity: Setaria (Setaria [1]; 15 g/ha): 6; Pre-emergent Herbicidal Activity: Soya (Soya; 15 g/ha): 2; Pre-emergent Herbicidal Activity: Soya (Soya; 30 g/ha): 5; Pre-emergent Herbicidal Activity: Amaranthus (Amaranthus; 15 g/ha): 7; Pre-emergent Herbicidal Activity: Amaranthus (Amaranthus; 30 g/ha): 7; Pre-emergent Herbicidal Activity: Abutilon (Abutilon [2]; 15 g/ha): 9; Pre-emergent Herbicidal Activity: Abutilon (Abutilon [2]; 30 g/ha): 9; Pre-emergent Herbicidal Activity: Echinochloa (Echinochloa; 15 g/ha): 4; Pre-emergent Herbicidal Activity: Echinochloa (Echinochloa; 30 g/ha): 9
COCc1nc(C(F)(F)F)ccc1C(=O)C1C(=O)C2CCC(C2)C1=O (stereo not drawn) [B]	6	9	9	1	1																Pre-emergent Herbicidal Activity: Setaria (Setaria [1]; 15 g/ha): 8; Pre-emergent Herbicidal Activity: Soya (Soya; 15 g/ha): 6; Pre-emergent Herbicidal Activity: Soya (Soya; 30 g/ha): 8; Pre-emergent Herbicidal Activity: Amaranthus (Amaranthus; 15 g/ha): 6; Pre-emergent Herbicidal Activity: Amaranthus (Amaranthus; 30 g/ha): 8; Pre-emergent Herbicidal Activity: Abutilon (Abutilon [2]; 15 g/ha): 8; Pre-emergent Herbicidal Activity: Abutilon (Abutilon [2]; 30 g/ha): 9; Pre-emergent Herbicidal Activity: Echinochloa (Echinochloa; 15 g/ha): 9; Pre-emergent Herbicidal Activity: Echinochloa (Echinochloa; 30 g/ha): 10
COC/C=C\c1nc(C(F)(F)F)ccc1C(=O)C1C(=O)C2CCC(C2)C1=O (stereo not drawn) [C]	0	0	2	0	0																Pre-emergent Herbicidal Activity: Setaria (Setaria [1]; 15 g/ha): 2; Pre-emergent Herbicidal Activity: Soya (Soya; 15 g/ha): 0; Pre-emergent Herbicidal Activity: Soya (Soya; 30 g/ha): 0; Pre-emergent Herbicidal Activity: Amaranthus (Amaranthus; 15 g/ha): 3; Pre-emergent Herbicidal Activity: Amaranthus (Amaranthus; 30 g/ha): 5; Pre-emergent Herbicidal Activity: Abutilon (Abutilon [2]; 15 g/ha): 3; Pre-emergent Herbicidal Activity: Abutilon (Abutilon [2]; 30 g/ha): 4; Pre-emergent Herbicidal Activity: Echinochloa (Echinochloa; 15 g/ha): 3; Pre-emergent Herbicidal Activity: Echinochloa (Echinochloa; 30 g/ha): 3
COCCCCc1nc(C(F)(F)F)ccc1C(=O)C1C(=O)C2CCC(C2)C1=O (stereo not drawn) [Compound F]	0	6	6	0	0																phytotoxic effect on the crop plants (corn) (Corn; [13]): no phytotoxic effect; Pre-emergent Herbicidal Activity: Soya (Soya; 15 g/ha): 0; Pre-emergent Herbicidal Activity: Soya (Soya; 30 g/ha): 0; phytotoxic effect on the crop plants (soya) (Soya; [13]): no phytotoxic effect; Pre-emergent Herbicidal Activity: Amaranthus (Amaranthus; 15 g/ha): 7; Pre-emergent Herbicidal Activity: Amaranthus (Amaranthus; 30 g/ha): 7; Pre-emergent Herbicidal Activity: Abutilon (Abutilon [2]; 15 g/ha): 8; Pre-emergent Herbicidal Activity: Abutilon (Abutilon [2]; 30 g/ha): 8; Pre-emergent Herbicidal Activity: Echinochloa (Echinochloa; 30 g/ha): 7
COCCCc1nc(C(F)F)ccc1C(=O)C1C(=O)C2CCC(C)(C2)C1=O (stereo not drawn) [Compound H-1]						9	9	9	9	9	10	7	8	8	8	8	9	9	9	9	
COCCCc1nc(C(F)F)ccc1C(=O)C1C(=O)C2CCC(CC2)C1=O (stereo not drawn) [Compound H-4]						9	9	9	9	9	9	7	9	7	7	8	7	8	9	9	
CCOCCCc1nc(C(F)(F)F)ccc1C(=O)C1C(=O)C2CCC(C2)C1=O (stereo not drawn) [Compound H-15]						10	10	10	10	9	10	10	9	8	10	9	8	9	9	8	
COCCCc1nc(C(F)(F)F)ccc1C(=O)C1C(=O)C2CCC(C)(C2)C1=O (stereo not drawn) [Compound H-16]						8	10	10	10	10	9	8	10	10	10	10	9	9	10	9	
CCC12CCC(C1)C(=O)C(C(=O)c1ccc(C(F)(F)F)nc1CCCOC)C2=O (stereo not drawn) [Compound H-17]													9	8	8	9	7	9	8	7	
COCCCc1nc(C(F)(F)F)ccc1C(=O)C1C(=O)C2CCCC(C2)C1=O (stereo not drawn) [Compound H-19]													9	8	9	8	8	8	8	9	
COCCCc1nc(C(F)F)ccc1C(=O)C1C(=O)C2CCCC(C2)C1=O (stereo not drawn) [Compound H-21]						7	7	10	9	10	10	10	9	8	9	8	8	8	9	9	
